Source: patent US8580769B2, “Treatment of obesity, metabolic syndrome, and diabetes with protein kinase C inhibitors” (The United States of America as represented by the …, priority 2011, dated 2013)

Columns and labels:
[1] = molecular target: T1, recombinant PKC-ι (Homo sapiens, UniProt P41743); assay: recombinant PKC-ι activity assay (PIP3-activated); type: biochemical
T1 construct: purchased Biovision, Mountain View, Calif
T1 sequence (P41743 1-596): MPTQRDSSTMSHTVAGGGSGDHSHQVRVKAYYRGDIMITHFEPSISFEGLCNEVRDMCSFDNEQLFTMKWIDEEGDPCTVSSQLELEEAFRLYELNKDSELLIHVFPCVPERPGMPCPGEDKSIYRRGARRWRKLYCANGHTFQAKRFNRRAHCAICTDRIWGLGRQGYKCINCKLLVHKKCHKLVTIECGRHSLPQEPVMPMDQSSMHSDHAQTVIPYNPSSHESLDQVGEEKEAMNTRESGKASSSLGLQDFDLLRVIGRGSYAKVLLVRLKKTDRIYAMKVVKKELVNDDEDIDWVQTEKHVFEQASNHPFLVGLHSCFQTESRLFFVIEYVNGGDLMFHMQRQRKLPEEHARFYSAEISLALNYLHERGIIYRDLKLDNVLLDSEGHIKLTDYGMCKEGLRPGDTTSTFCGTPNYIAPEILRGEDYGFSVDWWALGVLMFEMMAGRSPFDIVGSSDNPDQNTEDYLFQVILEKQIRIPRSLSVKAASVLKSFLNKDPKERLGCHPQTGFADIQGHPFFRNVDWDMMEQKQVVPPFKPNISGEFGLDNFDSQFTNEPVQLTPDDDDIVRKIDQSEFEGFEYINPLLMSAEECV
Method: aPKCι Assays: aPKC enzyme activity was measured as previously described (Standaert et al., J. Biol. Chem. 279:24929-24934, 2004; Sajan et al., J. Lipid Res. 50:1133-1145, 2009; Sajan et al., Diabetologia 52:1197-1207, 2009; Farese et al., J. Clin. Invest. 117:2289-2301, 2007). […] After incubation, ^32P-labeled substrate was trapped on P-81 filter paper and counted. […]

[2] = test system: FoxO1; assay: serine-256 phosphorylation of FoxO1 in human hepatocytes; type: cell-based; conditions: inhibitor alone or with insulin
Method: After thawing, the hepatocytes were distributed (approximately 10^6 cells per 100 mm plate) and incubated approximately 16 hours overnight in Dulbecco's minimal essential medium containing 5% fetal calf serum, 100 units/ml sodium-penicillin, 100 μg/ml streptomycin-sulfate, 1 μM insulin and 2 μM dexamethasone. After washing, cells were incubated first for 2 hours in William's E medium (Sigma-Aldrich, St. Louis, Mo., catalog no. W1878) containing GLUTAMAX™ (Gibco/Invitrogen, Carlsbad, Calif.), 100 units/ml sodium-penicillin, 100 μg/ml streptomycin-sulfate, 10 μM insulin, 100 nM dexamethasone, and then for 2 hours in William's E medium containing 100 units/ml sodium penicillin, 100 μg/ml streptomycin-sulfate, 100 nM dexamethasone, 0.25 mg/ml transferrin, 0.25 μg/ml sodium selenite and 10 μM insulin. Cells were then washed and incubated for 3 hours in the same medium, but lacking insulin. Where indicated, an aPKC inhibitor was then added and incubation was continued for 30 min, after which, cells were treated either for 15 min with or without 100 nM insulin for acute signaling studies, or for 6 hours, with or without 1 μM insulin for expression studies. After incubation, cells were sonicated in homogenizing buffer. […]

[3] = test system: AMP-activated protein kinase; assay: AMP-activated protein kinase activity

SMILES | inhibition of PIP3-activated recombinant PKC-ι ([1]; in vitro) | FoxO1 phosphorylation [2] | AMP-activated protein kinase activity [3] | IC50 ([1]; 10 ng recombinant PKC-ι activated by 10 fM PIP3, in vitro) [nM]
O=C([O-])CC([S][Au])C(=O)[O-] (stereo not drawn) [ATM, aurothiomalate, reference compound] | did not inhibit | insulin-like, or enhanced insulin, effects | neither ICAPP nor ATM altered | –
NC(=O)c1ncn([C@@H]2C[C@H](COP(=O)(O)O)[C@@H](O)[C@H]2O)c1N [ICAPP, 1H-imidazole-4-carboxamide, 5-amino-1-[2,3-dihydroxy-4-[(phosphonooxy)methyl]cyclopentyl]-[1R-(1α,2β,3β,4α)]] | – | insulin-like, or enhanced insulin, effects | neither ICAPP nor ATM altered | 10 to 100
